What was measured:
SNB-19 = experiment: NCI one-dose SRB growth inhibition; format: cell-based; conditions: Homo sapiens, CNS Cancer, 48 h, read-out: GI% SNB-19
Summary of the method: (§1)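 Run under the NCI Developmental Therapeutics Program protocol at a single dose, with 48 h drug exposure. Growth and viability read by sulforhodamine B staining.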

K-562 = experiment: NCI one-dose SRB growth inhibition; format: cell-based; conditions: Homo sapiens, K562, 48 h, Leukemia, read-out: GI% K-562
Summary of the method: as §1

NCI-H322M = experiment: NCI one-dose SRB growth inhibition; format: cell-based; conditions: Homo sapiens, Non-Small Cell Lung Cancer, 48 h, read-out: GI% NCI-H322M
Summary of the method: as §1

Row | SMILES | melting point [°C] | inhibition at 10 µM (SNB-19) [%] | inhibition at 10 µM (K-562) [%] | inhibition at 10 µM (NCI-H322M) [%]
1 | Cc1nc(-c2ccc(Cl)cc2)ccc1NC(=O)Nc1cccc(C(F)(F)F)c1 [Compound 5e, 1-(6-(4-Chlorophenyl)-2-methylpyridin-3-yl)-3-(3-(trifluoromethyl)phenyl)urea] | 241 to 242 | < 10 | 20 | < 10
2 | Cc1nc(-c2cccs2)ccc1NC(=O)Nc1ccc(F)cc1 [Compound 5h, 1-(4-Fluorophenyl)-3-(2-methyl-6-(thiophen-2-yl)pyridin-3-yl)urea] | 217 to 219 | < 10 | 22 | < 10
3 | Cc1nc(-c2cccs2)ccc1NC(=O)Nc1ccc(Cl)cc1 [Compound 5i, 1-(4-Chlorophenyl)-3-(2-methyl-6-(thiophen-2-yl)pyridin-3-yl)urea] | 234 to 236 | < 10 | < 10 | < 10
4 | Cc1nc(-c2ccc(F)cc2)ccc1NC(=O)Nc1cccc(C(F)(F)F)c1 [Compound 5a, 1-(6-(4-Fluorophenyl)-2-methylpyridin-3-yl)-3-(3-(trifluoromethyl)phenyl)urea] | 223 to 225 | 15 | > 40 | 15
5 | CCOC(=O)c1ccc(NC(=O)Nc2ccc(-c3cccs3)nc2C)cc1 [Compound 5j, Ethyl 4-(3-(2-methyl-6-(thiophen-2-yl)pyridin-3-yl)ureido)benzoate] | 203 to 204 | < 10 | 42 | 17
6 | COc1ccc(NC(=O)Nc2ccc(-c3ccc(Cl)cc3)nc2C)cc1 [Compound 5f, 1-(6-(4-Chlorophenyl)-2-methylpyridin-3-yl)-3-(4-methoxyphenyl) urea] | 264 to 265 | < 10 | 13 | < 10
7 | Cc1nc(-c2ccc(Cl)cc2)ccc1NC(=O)Nc1ccc2c(c1)OCO2 [Compound 5g, 1-(Benzo[d][1,3]dioxol-5-yl)-3-(6-(4-chlorophenyl)-2-methylpyridin-3-yl)urea] | 271 to 273 | < 10 | 21 | < 10
8 | Cc1nc(-c2ccc(F)cc2)ccc1NC(=O)Nc1ccc2c(c1)OCO2 [Compound 5d, 1-(Benzo[d][1, 3]dioxol-5-yl)-3-(6-(4-fluorophenyl)-2-methylpyridin-3-yl)urea] | 254 to 256 | < 10 | 23 | < 10
9 | CCOC(=O)c1ccc(NC(=O)Nc2ccc(-c3ccc(F)cc3)nc2C)cc1 [Compound 5c, Ethyl 4-(3-(6-(4-fluorophenyl)-2-methylpyridin-3-yl)ureido)benzoate] | 209 to 211 | < 10 | < 10 | < 10
